Experimental data: the NIST ThermoML archive (doi:10.1016/j.jct.2010.06.008)
± gives the expanded uncertainty stated by the source.

Experiment: xn = mol fraction of the nth substance listed
Conditions: 101 kPa, Liquid; for speed of sound: Sing-around technique in a fixed-path interferometer; for mass density: Vibrating tube method

CC(C)CCl [1-chloro-2-methylpropane] + CCCCCC
Conditions | mass density, 283.15 K [kg/m3] | mass density, 298.15 K [kg/m3] | mass density, 313.15 K [kg/m3] | speed of sound, 283.15 K [m/s] | speed of sound, 298.15 K [m/s] | speed of sound, 313.15 K [m/s]
x2 = 0 | 888.845 ± 0.23 | 871.533 ± 0.24 | 853.902 ± 0.24 | 1141.7 ± 2.3 | 1078.6 ± 2.3 | 1016.3 ± 2.3
x2 = 0.0512 | 874.715 ± 0.24 | 857.627 ± 0.24 | 840.236 ± 0.24 | 1139.3 ± 2.3 | 1075.9 ± 2.3 | 1013.4 ± 2.3
x2 = 0.0999 | 861.62 ± 0.24 | 844.732 ± 0.24 | 827.564 ± 0.24 | 1137.3 ± 2.3 | 1073.7 ± 2.3 | 1011 ± 2.3
x2 = 0.2003 | 835.641 ± 0.24 | 819.166 ± 0.24 | 802.454 ± 0.24 | 1134 ± 2.3 | 1070 ± 2.3 | 1006.9 ± 2.3
x2 = 0.2993 | 811.259 ± 0.24 | 795.172 ± 0.24 | 778.889 ± 0.25 | 1131.9 ± 2.3 | 1067.5 ± 2.3 | 1003.9 ± 2.3
x2 = 0.4005 | 787.516 ± 0.24 | 771.817 ± 0.25 | 755.943 ± 0.25 | 1130.6 ± 2.3 | 1065.8 ± 2.3 | 1001.8 ± 2.3
x2 = 0.4977 | 765.822 ± 0.25 | 750.487 ± 0.25 | 735.001 ± 0.25 | 1130.5 ± 2.3 | 1065.2 ± 2.3 | 1000.6 ± 2.3
x2 = 0.598 | 744.502 ± 0.25 | 729.51 ± 0.25 | 714.446 ± 0.25 | 1131.3 ± 2.3 | 1065.5 ± 2.3 | 1000.4 ± 2.3
x2 = 0.6993 | 723.963 ± 0.25 | 709.35 ± 0.25 | 694.648 ± 0.25 | 1133 ± 2.3 | 1066.7 ± 2.3 | 1001.1 ± 2.3
x2 = 0.799 | 704.731 ± 0.25 | 690.452 ± 0.25 | 676.142 ± 0.25 | 1135.8 ± 2.3 | 1069 ± 2.3 | 1002.8 ± 2.3
x2 = 0.8967 | 686.793 ± 0.25 | 672.832 ± 0.25 | 658.858 ± 0.26 | 1139.6 ± 2.3 | 1072.2 ± 2.3 | 1005.6 ± 2.3
x2 = 0.9472 | 677.811 ± 0.25 | 664.036 ± 0.26 | 650.244 ± 0.26 | 1142 ± 2.3 | 1074.3 ± 2.3 | 1007.5 ± 2.3

CC(C)CCl [1-chloro-2-methylpropane] + CCCCCCC
Conditions | mass density, 283.15 K [kg/m3] | mass density, 298.15 K [kg/m3] | mass density, 313.15 K [kg/m3] | speed of sound, 283.15 K [m/s] | speed of sound, 298.15 K [m/s] | speed of sound, 313.15 K [m/s]
x2 = 0 | 888.845 ± 0.23 | 871.533 ± 0.24 | 853.902 ± 0.24 | 1141.7 ± 2.3 | 1078.6 ± 2.3 | 1016.3 ± 2.3
x2 = 0.0507 | 874.748 ± 0.24 | 857.771 ± 0.24 | 840.47 ± 0.24 | 1142.2 ± 2.3 | 1079.1 ± 2.3 | 1016.8 ± 2.3
x2 = 0.0979 | 862.133 ± 0.24 | 845.448 ± 0.24 | 828.448 ± 0.24 | 1143 ± 2.3 | 1079.8 ± 2.3 | 1017.4 ± 2.3
x2 = 0.2004 | 836.427 ± 0.24 | 820.343 ± 0.24 | 803.95 ± 0.24 | 1145.4 ± 2.3 | 1082.2 ± 2.3 | 1019.6 ± 2.3
x2 = 0.3008 | 813.265 ± 0.24 | 797.726 ± 0.24 | 781.886 ± 0.24 | 1149 ± 2.3 | 1085.5 ± 2.3 | 1022.9 ± 2.3
x2 = 0.3993 | 792.269 ± 0.24 | 777.224 ± 0.24 | 761.888 ± 0.24 | 1153.4 ± 2.3 | 1089.8 ± 2.3 | 1027 ± 2.3
x2 = 0.4999 | 772.383 ± 0.24 | 757.812 ± 0.24 | 742.952 ± 0.25 | 1158.6 ± 2.3 | 1094.9 ± 2.3 | 1032 ± 2.3
x2 = 0.5973 | 754.5 ± 0.24 | 740.349 ± 0.25 | 725.924 ± 0.25 | 1164.4 ± 2.3 | 1100.6 ± 2.3 | 1037.5 ± 2.3
x2 = 0.6994 | 737.065 ± 0.25 | 723.337 ± 0.25 | 709.345 ± 0.25 | 1171.2 ± 2.3 | 1107.2 ± 2.3 | 1044 ± 2.3
x2 = 0.8006 | 720.978 ± 0.25 | 707.64 ± 0.25 | 694.051 ± 0.25 | 1178.7 ± 2.3 | 1114.2 ± 2.3 | 1051.1 ± 2.3
x2 = 0.9002 | 706.284 ± 0.25 | 693.212 ± 0.25 | 679.976 ± 0.25 | 1187 ± 2.3 | 1122.3 ± 2.3 | 1058.9 ± 2.3
x2 = 0.9491 | 699.353 ± 0.25 | 686.54 ± 0.25 | 673.496 ± 0.25 | 1191 ± 2.3 | 1126.4 ± 2.3 | 1062.7 ± 2.3

CCCCCl [1-chlorobutane] + CCCCCC
Conditions | mass density, 283.15 K [kg/m3] | mass density, 298.15 K [kg/m3] | mass density, 313.15 K [kg/m3] | speed of sound, 283.15 K [m/s] | speed of sound, 298.15 K [m/s] | speed of sound, 313.15 K [m/s]
x2 = 0 | 897.339 ± 0.23 | 880.785 ± 0.23 | 863.882 ± 0.23 | 1180.1 ± 2.3 | 1118.2 ± 2.3 | 1056.9 ± 2.3
x2 = 0.0508 | 882.878 ± 0.24 | 866.478 ± 0.24 | 849.768 ± 0.24 | 1176 ± 2.3 | 1113.8 ± 2.3 | 1052.2 ± 2.3
x2 = 0.0992 | 869.441 ± 0.24 | 853.196 ± 0.24 | 836.65 ± 0.24 | 1172.3 ± 2.3 | 1109.7 ± 2.3 | 1047.9 ± 2.3
x2 = 0.1972 | 843.152 ± 0.24 | 827.205 ± 0.24 | 810.995 ± 0.24 | 1165.6 ± 2.3 | 1102.4 ± 2.3 | 1040 ± 2.3
x2 = 0.2966 | 817.766 ± 0.24 | 802.115 ± 0.24 | 786.257 ± 0.24 | 1159.7 ± 2.3 | 1095.9 ± 2.3 | 1032.8 ± 2.3
x2 = 0.3976 | 793.168 ± 0.24 | 777.821 ± 0.24 | 762.288 ± 0.24 | 1154.6 ± 2.3 | 1090.2 ± 2.3 | 1026.5 ± 2.3
x2 = 0.5009 | 769.237 ± 0.24 | 754.195 ± 0.24 | 739.001 ± 0.24 | 1150.5 ± 2.3 | 1085.6 ± 2.3 | 1021.2 ± 2.3
x2 = 0.6006 | 747.205 ± 0.24 | 732.45 ± 0.24 | 717.601 ± 0.25 | 1147.4 ± 2.3 | 1081.8 ± 2.3 | 1016.9 ± 2.3
x2 = 0.6982 | 726.617 ± 0.25 | 712.126 ± 0.25 | 697.583 ± 0.25 | 1145.2 ± 2.3 | 1079.1 ± 2.3 | 1013.6 ± 2.3
x2 = 0.7972 | 706.669 ± 0.25 | 692.488 ± 0.25 | 678.241 ± 0.25 | 1143.9 ± 2.3 | 1077.2 ± 2.3 | 1011.2 ± 2.3
x2 = 0.8979 | 687.33 ± 0.25 | 673.439 ± 0.25 | 659.508 ± 0.25 | 1143.7 ± 2.3 | 1076.4 ± 2.3 | 1009.8 ± 2.3
x2 = 0.9472 | 678.205 ± 0.25 | 664.449 ± 0.25 | 650.666 ± 0.25 | 1144.1 ± 2.3 | 1076.4 ± 2.3 | 1009.7 ± 2.3

CCCCCl [1-chlorobutane] + CCCCCCC
mass density [kg/m3]
Conditions | 283.15 K | 298.15 K | 313.15 K
x2 = 0 | 897.339 ± 0.23 | 880.785 ± 0.23 | 863.882 ± 0.24
x2 = 0.0508 | 882.735 ± 0.24 | 866.442 ± 0.24 | 849.802 ± 0.24
x2 = 0.1017 | 868.636 ± 0.24 | 852.592 ± 0.24 | 836.205 ± 0.24
x2 = 0.1981 | 843.549 ± 0.24 | 827.947 ± 0.24 | 812.014 ± 0.24
x2 = 0.2989 | 819.278 ± 0.24 | 804.127 ± 0.24 | 788.662 ± 0.24
x2 = 0.4022 | 796.314 ± 0.24 | 781.594 ± 0.24 | 766.57 ± 0.24
x2 = 0.4998 | 776.207 ± 0.24 | 761.86 ± 0.24 | 747.232 ± 0.25
x2 = 0.6008 | 756.852 ± 0.24 | 742.869 ± 0.25 | 728.632 ± 0.25
x2 = 0.6989 | 739.334 ± 0.25 | 725.722 ± 0.25 | 711.853 ± 0.25
x2 = 0.7985 | 722.761 ± 0.25 | 709.483 ± 0.25 | 695.957 ± 0.25
x2 = 0.898 | 707.234 ± 0.25 | 694.282 ± 0.25 | 681.084 ± 0.25
x2 = 0.9498 | 699.591 ± 0.25 | 686.802 ± 0.25 | 673.764 ± 0.25

CC(C)(C)Cl [2-chloro-2-methylpropane] + CCCCCC
Conditions | mass density, 283.15 K [kg/m3] | mass density, 298.15 K [kg/m3] | mass density, 313.15 K [kg/m3] | speed of sound, 283.15 K [m/s] | speed of sound, 298.15 K [m/s] | speed of sound, 313.15 K [m/s]
x2 = 0 | 855.249 ± 0.24 | 837.096 ± 0.24 | 818.536 ± 0.24 | 1046.9 ± 2.3 | 983.25 ± 2.3 | 919.41 ± 2.3
x2 = 0.0495 | 843.636 ± 0.24 | 825.763 ± 0.24 | 807.514 ± 0.24 | 1049.8 ± 2.3 | 985.59 ± 2.3 | 922.06 ± 2.3
x2 = 0.0989 | 832.389 ± 0.24 | 814.802 ± 0.24 | 796.851 ± 0.24 | 1052.2 ± 2.3 | 987.79 ± 2.3 | 924.46 ± 2.3
x2 = 0.2019 | 809.862 ± 0.24 | 792.826 ± 0.24 | 775.465 ± 0.24 | 1058.6 ± 2.3 | 993.98 ± 2.3 | 930.06 ± 2.3
x2 = 0.2987 | 789.789 ± 0.24 | 773.235 ± 0.24 | 756.4 ± 0.25 | 1065.7 ± 2.3 | 1000.7 ± 2.3 | 936.45 ± 2.3
x2 = 0.4043 | 768.847 ± 0.24 | 752.8 ± 0.25 | 736.513 ± 0.25 | 1074.5 ± 2.3 | 1009.1 ± 2.3 | 944.41 ± 2.3
x2 = 0.4985 | 751.114 ± 0.25 | 735.482 ± 0.25 | 719.653 ± 0.25 | 1083.1 ± 2.3 | 1017.5 ± 2.3 | 952.34 ± 2.3
x2 = 0.6024 | 732.382 ± 0.25 | 717.205 ± 0.25 | 701.869 ± 0.25 | 1093.7 ± 2.3 | 1027.6 ± 2.3 | 962.01 ± 2.3
x2 = 0.7017 | 715.376 ± 0.25 | 700.606 ± 0.25 | 685.731 ± 0.25 | 1104.7 ± 2.3 | 1038.2 ± 2.3 | 972.24 ± 2.3
x2 = 0.7996 | 699.305 ± 0.25 | 684.94 ± 0.25 | 670.488 ± 0.25 | 1116.6 ± 2.3 | 1049.7 ± 2.3 | 983.31 ± 2.3
x2 = 0.9025 | 683.186 ± 0.25 | 669.222 ± 0.25 | 655.21 ± 0.26 | 1130.4 ± 2.3 | 1063 ± 2.3 | 996.24 ± 2.3
x2 = 0.9498 | 676.073 ± 0.25 | 662.283 ± 0.25 | 648.468 ± 0.26 | 1137.2 ± 2.3 | 1069.5 ± 2.3 | 1002.6 ± 2.3
